{
  "source": "ChEMBL document CHEMBL1142916",
  "about": "“Synthesis and biological activity of 2,5-diaryl-3-methylpyrimido[4,5-c]quinolin-1(2H)-one derivatives” (Bioorg Med Chem, 2007)",
  "note": "Activity calls are given as the source filed them. No cut-off for these calls is given here.",
  "data": [
    {"species_on_record": "Bos taurus", "assay": "Inhibition of bovine brain tubulin polymerization at 27 uM in presence of microtubule associated proteins", "details": "not given", "values": [
      {"smiles": "Cc1nc2c(-c3ccc(Cl)cc3)nc3ccccc3c2c(=O)n1-c1cccc(Br)c1", "Activity": "inactive"}
    ]},
    {"species_on_record": "Bos taurus", "assay": "Inhibition of bovine brain tubulin polymerization at 27 uM in absence of microtubule associated proteins", "details": "not given", "values": [
      {"smiles": "Cc1nc2c(-c3ccc(Cl)cc3)nc3ccccc3c2c(=O)n1-c1cccc(Br)c1", "Activity": "inactive"}
    ]},
    {"tested_on": "PC-3", "assay": "Cytotoxicity against human PC3 cells after 3 days by MTT assay", "format": "functional, cell-based", "details": "PC-3, 72 h", "units": {"IC50": "µM"}, "values": [
      {"smiles": "Cc1nc2c(-c3ccc(Br)cc3)nc3ccccc3c2c(=O)n1-c1ccc(Br)cc1", "IC50": 3.3},
      {"smiles": "Cc1nc2c(-c3ccc(Cl)cc3)nc3ccccc3c2c(=O)n1-c1cccc(Br)c1", "IC50": 1.4},
      {"smiles": "Cc1nc2c(-c3ccc(Cl)cc3)nc3ccccc3c2c(=O)n1-c1ccc(Cl)cc1", "IC50": "> 28"},
      {"smiles": "Cc1nc2c(-c3ccc(Br)cc3)nc3ccccc3c2c(=O)n1-c1ccc(Cl)cc1", "IC50": 1.9},
      {"smiles": "Cc1nc2c(-c3ccc(Br)cc3)nc3ccccc3c2c(=O)n1-c1ccc(F)cc1", "IC50": 5.5},
      {"smiles": "Cc1ccc(-n2c(C)nc3c(-c4ccc(Br)cc4)nc4ccccc4c3c2=O)cc1", "IC50": "> 21.3"},
      {"smiles": "COc1ccc(-n2c(C)nc3c(-c4ccc(Br)cc4)nc4ccccc4c3c2=O)cc1", "IC50": 2.5},
      {"smiles": "Cc1nc2c(-c3ccc(Cl)cc3)nc3ccccc3c2c(=O)n1-c1ccc(Br)cc1", "IC50": 2.5},
      {"smiles": "COc1ccccc1-n1c(C)nc2c(-c3ccc(Cl)cc3)nc3ccccc3c2c1=O", "IC50": 10.5},
      {"smiles": "Cc1nc2c(-c3ccc(Cl)cc3)nc3ccccc3c2c(=O)n1-c1cccc(Cl)c1", "IC50": "> 26"},
      {"smiles": "Cc1nc2c(-c3ccc(Br)cc3)nc3ccccc3c2c(=O)n1-c1cccc(Cl)c1", "IC50": "> 25"},
      {"smiles": "Cc1nc2c(-c3ccc(Br)cc3)nc3ccccc3c2c(=O)n1-c1ccccc1Br", "IC50": "> 20"},
      {"smiles": "COc1ccccc1-n1c(C)nc2c(-c3ccc(Br)cc3)nc3ccccc3c2c1=O", "IC50": 6.7},
      {"smiles": "Cc1nc2c(-c3ccc(Cl)cc3)nc3ccccc3c2c(=O)n1-c1ccc(F)cc1", "IC50": 4},
      {"smiles": "COc1ccc(-n2c(C)nc3c(-c4ccc(Cl)cc4)nc4ccccc4c3c2=O)cc1", "IC50": 1.6},
      {"smiles": "Cc1nc2c(-c3ccc(Cl)cc3)nc3ccccc3c2c(=O)n1-c1ccccc1", "IC50": 3.2},
      {"smiles": "Cc1nc2c(-c3ccc(Br)cc3)nc3ccccc3c2c(=O)n1-c1ccccc1", "IC50": 2.2},
      {"smiles": "Cc1nc2c(-c3ccc(Cl)cc3)nc3ccccc3c2c(=O)n1-c1ccccc1Cl", "IC50": 2},
      {"smiles": "Cc1ccc(-n2c(C)nc3c(-c4ccc(Cl)cc4)nc4ccccc4c3c2=O)cc1", "IC50": "> 32"},
      {"smiles": "Cc1ccccc1-n1c(C)nc2c(-c3ccc(Br)cc3)nc3ccccc3c2c1=O", "IC50": "> 30"},
      {"smiles": "Cc1nc2c(-c3ccc(Br)cc3)nc3ccccc3c2c(=O)n1-c1cccc(Br)c1", "IC50": "> 10"},
      {"smiles": "COc1cc2c(c(OC)c1OC)-c1ccc(OC)c(=O)cc1[C@@H](NC(C)=O)CC2", "note": "[COLCHICINE]", "IC50": 0.018},
      {"smiles": "Cc1ccccc1-n1c(C)nc2c(-c3ccc(Cl)cc3)nc3ccccc3c2c1=O", "IC50": "> 38"},
      {"smiles": "Cc1nc2c(-c3ccc(Br)cc3)nc3ccccc3c2c(=O)n1-c1ccccc1Cl", "IC50": "> 28"},
      {"smiles": "Cc1nc2c(-c3ccc(Cl)cc3)nc3ccccc3c2c(=O)n1-c1ccccc1Br", "IC50": "> 42"}
    ]},
    {"species_on_record": "Bos taurus", "assay": "Inhibition of bovine brain tubulin polymerization at 40 uM in presence of microtubule associated proteins", "details": "not given", "values": [
      {"smiles": "COc1ccc(-n2c(C)nc3c(-c4ccc(Cl)cc4)nc4ccccc4c3c2=O)cc1", "Activity": "inactive"}
    ]},
    {"species_on_record": "Bos taurus", "assay": "Inhibition of bovine brain tubulin polymerization at 40 uM absence of microtubule associated proteins", "details": "not given", "values": [
      {"smiles": "COc1ccc(-n2c(C)nc3c(-c4ccc(Cl)cc4)nc4ccccc4c3c2=O)cc1", "Activity": "inactive"}
    ]}
  ]
}
